Data from patent US20260125382A1, “COMPOUNDS FOR INHIBITING OR DEGRADING CDK2 AND/OR CDK9 AND MEDICINAL USE THEREOF” (KOREA RESEARCH INSTITUTE OF CHEMICAL TECHNOLOGY, priority 2022, published 2026).

Columns and labels:
[1] = molecular target: T1, CDK9 (Homo sapiens, UniProt P50750); experiment: CDK protein degradation activity (Western blotting), CDK9; assay type: cell-based; conditions: MDA-MB-231 cells, 16 hours, Western blot
T1 construct: endogenous in cells; host or cells: MDA-MB-231
Outline: (§1)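 Breast cancer line MDA-MB-231, 16 h compound treatment (100 nM–10 μM final, three doses). Immunoblot quantification of CDK2/CDK9 versus tubulin, normalized to DMSO control.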

[2] = molecular target: T2, CDK2 (Homo sapiens, UniProt P24941); experiment: CDK protein degradation activity (Western blotting), CDK2; assay type: cell-based; conditions: MDA-MB-231 cells, 16 hours, Western blot
T2 construct: endogenous in cells; host or cells: MDA-MB-231
Outline: as §1

T1 sequence (P50750 whole entry): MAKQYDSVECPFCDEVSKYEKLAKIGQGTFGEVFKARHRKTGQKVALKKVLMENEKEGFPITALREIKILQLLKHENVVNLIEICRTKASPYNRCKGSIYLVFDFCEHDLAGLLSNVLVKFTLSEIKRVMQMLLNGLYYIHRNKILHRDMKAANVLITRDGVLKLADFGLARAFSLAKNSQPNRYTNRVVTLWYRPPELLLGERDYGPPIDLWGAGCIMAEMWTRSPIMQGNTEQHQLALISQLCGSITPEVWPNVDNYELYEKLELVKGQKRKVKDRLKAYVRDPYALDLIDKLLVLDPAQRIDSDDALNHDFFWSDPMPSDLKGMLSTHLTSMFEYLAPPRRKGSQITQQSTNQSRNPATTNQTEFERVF

Row | Enzyme degradation CDK9 (% remaining) @ 0.1 μM [1] | Enzyme degradation CDK9 (% remaining) @ 1 μM [1] | Enzyme degradation CDK9 (% remaining) @ 10 μM [1] | Enzyme degradation CDK2 (% remaining) @ 0.1 μM [2] | Enzyme degradation CDK2 (% remaining) @ 1 μM [2] | Enzyme degradation CDK2 (% remaining) @ 10 μM [2] | Structure (SMILES)
1 | 30% | 0% | 0% | 50% | 10% | 10% | O=C1CC[C@H](N2C(=O)c3ccc(NCC(=O)N4CCC(CN5CCN(c6ccc(Nc7ncnc8c7ncn8C7CC(NC(=O)Cc8ccccc8)C7)cc6)CC5)CC4)cc3C2=O)C(=O)N1 (stereo partly drawn) [Compound 177, N-((1s,3s)-3-(6-((4-(4-((1-((2-(2,6-dioxopiperidin-3-yl)-1,3-dioxoisoindolin-5-yl)glycyl)piperidin-4-yl)methyl)piperazin-1-yl)phenyl)amino)-9H-purin-9-yl)cyclobutyl)-2-phenylacetamide]
2 | 10% | 0% | 0% | 90% | 70% | 70% | O=C1CC[C@H](N2C(=O)c3ccc(NCC(=O)N4CCC5(CC(N6CCN(c7ccc(Nc8ncnc9c8ncn9[C@H]8C[C@@H](NC(=O)Cc9ccccc9)C8)cc7)CC6)C5)C4)cc3C2=O)C(=O)N1 (stereo partly drawn) [Compound 265, N-((1s,3s)-3-(6-((4-(4-(6-((2-(2,6-dioxopiperidin-3-yl)-1,3-dioxoisoindolin-5-yl)glycyl)-6-azaspiro[3.4]octan-2-yl)piperazin-1-yl)phenyl)amino)-9H-purin-9-yl)cyclobutyl)-2-phenylacetamide]
3 | 30% | 20% | 20% | 30% | 20% | 20% | O=C1CC[C@H](n2nnc3ccc(N4CCC(CN5CCC(CCNc6ncnc7c6ncn7C6CC(NC(=O)Cc7ccccc7)C6)CC5)CC4)cc3c2=O)C(=O)N1 (stereo partly drawn) [Compound 410, N-((1s,3s)-3-(6-((2-(1-((1-(3-(2,6-dioxopiperidin-3-yl)-4-oxo-3,4-dihydrobenzo[d][1,2,3]triazin-6-yl)piperidin-4-yl)methyl)piperidin-4-yl)ethyl)amino)-9H-purin-9-yl)cyclobutyl)-2-phenylacetamide]
4 | 20% | 10% | 30% | 80% | 90% | 100% | Cc1cccc(C(=O)NC2CC(n3cnc4c(NC5CCN(CCOC6CCN(C(=O)CNc7cccc8c7C(=O)N([C@H]7CCC(=O)NC7=O)C8=O)CC6)CC5)ncnc43)C2)n1 (stereo partly drawn) [Compound 46, N-((1s,3s)-3-(6-((1-(2-((1-((2-(2,6-dioxopiperidin-3-yl)-1,3-dioxoisoindolin-4-yl)glycyl)piperidin-4-yl)oxy)ethyl)piperidin-4-yl)amino)-9H-purin-9-yl)cyclobutyl)-6-methylpicolinamide]
5 | 0/0/0% | 0/0/0% | 0/0/0% | 10% | 20% | 20% | O=C1CC[C@@H](c2cccc(OCC(=O)N3CCC(CN4CCC(c5ccc(Nc6ncnc7c6ncn7C6CC(NC(=O)Cc7ccccc7)C6)cc5)CC4)CC3)c2)C(=O)N1 (stereo partly drawn) [Compound 282, N-((1s,3s)-3-(6-((4-(1-((1-(2-(3-(2,6-dioxopiperidin-3-yl)phenoxy)acetyl)piperidin-4-yl)methyl)piperidin-4-yl)phenyl)amino)-9H-purin-9-yl)cyclobutyl)-2-phenylacetamide]
6 | 20% | 30% | 30% | 50% | 60% | 50% | O=C1CCN(c2coc3cc(C(=O)NC[C@H]4CC[C@H](CN5CCN(c6ccc(Nc7ncnc8c7ncn8[C@H]7C[C@@H](NC(=O)Cc8ccccc8)C7)cc6)CC5)CC4)ccc23)C(=O)N1 [Compound 199, 3-(2,4-dioxotetrahydropyrimidin-1(2H)-yl)-N-(((1r,4r)-4-((4-(4-((9-((1s,3s)-3-(2-phenylacetamido)cyclobutyl)-9H-purin-6-yl)amino)phenyl)piperazin-1-yl)methyl)cyclohexyl)methyl)benzofuran-6-carboxamide]
7 | 10% | 0% | 0% | 40% | 50% | 60% | Cc1cccc(C(=O)NC2CC(n3cnc4c(NCc5ccc(N6CCN(C(=O)CNc7cccc8c7C(=O)N([C@H]7CCC(=O)NC7=O)C8=O)CC6)cc5)ncnc43)C2)n1 (stereo partly drawn) [Compound 148, N-((1s,3s)-3-(6-((4-(4-((2-(2,6-dioxopiperidin-3-yl)-1,3-dioxoisoindolin-4-yl)glycyl)piperazin-1-yl)benzyl)amino)-9H-purin-9-yl)cyclobutyl)-6-methylpicolinamide]
8 | 80% | 50% | 50% | 0% | 20% | 20% | COc1ccc(C(=O)N2CCC(CCCN3CCN(c4ccc(Nc5ncnc6c5ncn6[C@H]5C[C@@H](NC(=O)Cc6ccccc6)C5)cc4)CC3)CC2)cc1N1CCC(=O)NC1=O [Compound 257, N-((1s,3s)-3-(6-((4-(4-(3-(1-(3-(2,4-dioxotetrahydropyrimidin-1(2H)-yl)-4-methoxybenzoyl)piperidin-4-yl)propyl)piperazin-1-yl)phenyl)amino)-9H-purin-9-yl)cyclobutyl)-2-phenylacetamide]
9 | 0/0/0% | 0/0/0% | 0/0/0% | 30% | 30% | 50% | O=C1CCC(N2C(=O)c3cc(F)c(N4CCC5(CC4)CC(N4CCN(c6ccc(Nc7ncnc8c7ncn8[C@H]7C[C@@H](NC(=O)c8c(Cl)cccc8Cl)C7)cc6)CC4)C5)cc3C2=O)C(=O)N1 (stereo partly drawn) [Compound 316, 2,6-dichloro-N-((1s,3s)-3-(6-((4-(4-(7-(2-(2,6-dioxopiperidin-3-yl)-6-fluoro-1,3-dioxoisoindolin-5-yl)-7-azaspiro[3.5]nonan-2-yl)piperazin-1-yl)phenyl)amino)-9H-purin-9-yl)cyclobutyl)benzamide]
10 | 0/0/0% | 0/0/0% | 0/0/0% | 50% | 70% | 50% | O=C1CC[C@H](N2C(=O)c3ccc(NCC(=O)N4CCC5(CC4)CC(N4CCN(c6ccc(Nc7ncnc8c7ncn8[C@H]7C[C@@H](NC(=O)Cc8ccccc8)C7)cc6)CC4)C5)cc3C2=O)C(=O)N1 [Compound 207, N-((1s,3s)-3-(6-((4-(4-(7-((2-(2,6-dioxopiperidin-3-yl)-1,3-dioxoisoindolin-5-yl)glycyl)-7-azaspiro[3.5]nonan-2-yl)piperazin-1-yl)phenyl)amino)-9H-purin-9-yl)cyclobutyl)-2-phenylacetamide]
11 | 30% | 0% | 0% | 10% | 20% | 40% | O=C1CC[C@@H](c2cccc(OCC(=O)N3CCC(CN4CCN(c5ccc(Nc6ncnc7c6ncn7C6CC(NC(=O)Cc7ccccc7)C6)cc5)CC4)CC3)c2)C(=O)N1 (stereo partly drawn) [Compound 225, N-((1s,3s)-3-(6-((4-(4-((1-(2-(3-(2,6-dioxopiperidin-3-yl)phenoxy)acetyl)piperidin-4-yl)methyl)piperazin-1-yl)phenyl)amino)-9H-purin-9-yl)cyclobutyl)-2-phenylacetamide]
12 | 50% | 10% | 10% | 0/0/0% | 0/0/0% | 0/0/0% | O=C1CC[C@H](n2nnc3ccc(N4CCN(C5CC6(CCN(c7ccc(Nc8ncnc9c8ncn9C8CC(NC(=O)Cc9ccccc9)C8)cc7)CC6)C5)CC4)cc3c2=O)C(=O)N1 (stereo partly drawn) [Compound 337, N-((1s,3s)-3-(6-((4-(2-(4-(3-(2,6-dioxopiperidin-3-yl)-4-oxo-3,4-dihydrobenzo[d][1,2,3]triazin-6-yl)piperazin-1-yl)-7-azaspiro[3.5]nonan-7-yl)phenyl)amino)-9H-purin-9-yl)cyclobutyl)-2-phenylacetamide]
